Assay results as given in ChEMBL document CHEMBL1134116, “Ethambutol analogues as potential antimycobacterial agents” (Bioorg Med Chem Lett, 2001).
Activity calls are given as the source filed them. The rule behind the calls is not given here.

Assays:
[1] = system: Mycolicibacterium smegmatis; test: Antimycobacterial activity was evaluated against Mycobacterium smegmatis; Active; type: functional, organism-based
[2] = system: Mycolicibacterium smegmatis; test: Antimycobacterial activity was evaluated against Mycobacterium smegmatis; Inactive; type: functional, organism-based

SMILES | Activity [1] | Activity [2]
OC[C@H]1N[C@@H](CSc2ccccc2)C(O)[C@H]1O (stereo not given in full) | Active | –
COC(=O)[C@H](CO)NCCN[C@@H](CO)C(=O)OC | – | inactive
CC[C@@H](CO)NCCN[C@H](C)CO | Active | –
OCCNCCNCCO | Active | inactive
CC[C@@H](CO)NCCN[C@@H](C)CO | Active | –
CC(C)[C@@H](CO)NCCN[C@H](CO)C(C)C | Active | –
OC[C@H](Cc1ccccc1)NCCN[C@@H](CO)Cc1ccccc1 | Active | –
OC[C@@H]1CCCN1CCN1CCC[C@H]1CO | Active | –
CC[C@@H](CO)NCCN[C@@H](CC)CO | Active | –
CC[C@@H](CO)NCCN1CCC[C@H]1CO | Active | –
CC[C@H](CO)NCCN[C@@H](CC)CO | Active | –
O=C(O)CNCCNCC(=O)O | – | inactive
CC(C)C[C@@H](CO)NCCN[C@@H](CO)CC(C)C | Active | –
O=C(O)CN(CCN(CC(=O)O)CC(=O)O)CC(=O)O | – | inactive
